From patent US20230190870A1, “Method for Treating Lysosomal Storage Diseases with Histatin Peptides” (THE BOARD OF TRUSTEES OF THE UNIVERSITY OF ILLINOIS, priority 2020, published 2023)
Square brackets hold non-standard residues; d marks the D form. Peptide text beside a SMILES is read from it. pS = N[C@@H](COP(=O)(O)O)C(=O)O

Tests used:
[1] = test system: mouse cerebellar tissue (NPC mouse model); assay: Lipid levels in Hst1-treated NPC mouse cerebellar tissue
From the text: In this respect, in addition to reducing the accumulation of cholesterol in liver tissue, histatin peptides may also be used to alter fatty acid and cholesterol metabolism in neuronal tissue thereby reducing changes associated with neurodegeneration.

[2] = target: T1, full-length recombinant TMEM97 (HEK293 cells) (Homo sapiens, UniProt Q5BJF2); assay: Surface plasmon resonance, immobilized full-length TMEM97; type: binding
T1 construct: Recombinant full-length TMEM97 (also called MAC30, from HEK293 cells); purchased OriGene (Rockville, Md.); host or cells: HEK293 cells

GST-TMEM97 (108-176) = target: T2, GST-TMEM97 (108-176) (Homo sapiens, UniProt Q5BJF2); assay: Surface plasmon resonance, immobilized GST-TMEM97 (108-176); type: binding; settings: for % Rmax: SPR
T2 construct: GST-TMEM97 (108-176, recombinant GST-C terminal from wheat germ); purchased Abnova (Taipei City, Taiwan); host or cells: wheat germ (cell-free)
Protocol: (§1) Surface Plasmon Resonance (SPR). Recombinant full-length TMEM97 (also called MAC30, from HEK293 cells) and GST-TMEM97 (108-176, recombinant GST-C terminal from wheat germ) proteins were purchased from OriGene (Rockville, Md.) and Abnova (Taipei City, Taiwan), respectively. Three peptides, TMEM97 (108-176), TMEM97 (108-143) and TMEM97 (144-176), were synthesized. All proteins and peptides were initially prepared in HBS buffer containing 10 mM HEPES, pH 7.4, 150 mM NaCl, and 0.05% surfactant P20. The CM5 sensor surface was first activated by 1-ethyl-3-(3-dimethylaminopropyl) carbodiimide hydrochloride (EDC)/N-hydroxy succinimide (NHS) mixture using a Biacore T200 or Biacore 8K instrument (GE Healthcare). […] Flow channels 1 and 3 were used as references.
(§2) The three synthesized peptides were diluted to 50 μg/mL in 10 mM sodium acetate at pH 4.0 and immobilized to flow channels 2, 3 and 4, respectively, on another sensor chip. The unmodified surfaces on a flow channel 1 were used as a reference control. Histatin solutions with a series of increasing concentrations (0.78-25 μM at 2-fold dilution) were applied to all four channels at a 30 μL/minute flow rate at 25° C. The data were double-referenced with reference channel and zero concentration responses, and reference subtracted sensorgrams were fitted with 1 to 1 Langmuir kinetic model using a Biacore T200 evaluation software V3.0 or Insight evaluation software. The equilibrium dissociation constants ([…]) were determined from two rate constants (KD=kd/ka).
(§3) To determine the region(s) of Hst1 that mediate binding to TMEM97, SPR testing was performed with various Hst1 fragments and either recombinant TMEM97 (GST-tagged, wheat-germ derived, C-terminal fragment TMEM97 (108-176)) or synthesized TMEM97 (TMEM97 (108-176), TMEM97 (108-143) and TMEM97 (144-176)).

[3] = target: T3, Synthetic TMEM97 (108-143) (Homo sapiens, UniProt Q5BJF2); assay: Surface plasmon resonance, immobilized synthetic TMEM97 (108-143); type: binding; settings: SPR
T3 construct: made in house; host or cells: chemical solid-phase synthesis (Fmoc, Wang resin)
Protocol: as §1, §2
(§4) To determine more precisely which segment of TMEM97 is necessary for binding of Hst1, multiple synthetic fragments of TMEM97 were generated (Table 6) and binding to Hst1 was tested using SPR. […] Smaller fragments of the C-terminal of TMEM97 were then constructed to represent the (predicted) luminal (108-143) and cytoplasmic (144-176) exposed segments of the C-terminus of TMEM97 based on modeling experiments previously described. […] SPR results for Hst1 were confirmed using ITC as an orthogonal analytical method.
as §3

[4] = test system: NPC1 (I1061T mutant) homozygous patient fibroblasts; assay: Cellular calcium in NPC1 (I1061T mutant) patient fibroblasts; type: cell-based, human
TMEM97 (144-176) = target: T4, TMEM97 (144-176) (Homo sapiens, UniProt Q5BJF2); assay: Isothermal titration calorimetry, C-terminal of TMEM97; type: binding; settings: ITC; the C-terminal of TMEM97
T4 construct: made in house; host or cells: chemical solid-phase synthesis (Fmoc, Wang resin)
Protocol: Isothermal Titration Calorimetry (ITC). The three synthesized peptides, TMEM97 (108-176), TMEM97 (108-143) and TMEM97 (144-176) were prepared in ITC buffer (10 mM Tris, pH 7.4, 150 mM NaCl, 0.05% polysorbate 20) at 40 μM concentration and placed in the sample cell. All ITC experiments were performed while stirring at 395 rpm, in ITC buffer at 25° C. using a VP-ITC titration microcalorimeter from MicroCal™, LLC (Northampton, Mass.). The microsyringe was loaded with a Histatin 1 solution (500 μM in ITC buffer). All titrations were conducted using an initial injection of 2.5 μL followed by 35 identical injections of 5 μL with a duration of 16 seconds (per injection) and a spacing of 210 seconds between injections. The buffer control titration (Histatin 1 into buffer) signals were subtracted from the experimental data. The collected data were evaluated using NITPIC (NIH), SEDPHAT (NIH), and GUSSI (NIH).
as §4

[5] = cyclization of histatin-1; cited from earlier work
NPC1 patient fibroblasts = assay: Gene expression in NPC1 patient fibroblasts; type: cell-based, human
[6] = test system: NPC knockout fibroblasts (NPC1−/−); assay: Filipin and LAMP1 staining in NPC knockout fibroblasts; type: cell-based, human
Protocol: In addition, cholesterol accumulation in wild type human skin fibroblasts or NPC knockout fibroblasts (NPC1^−/−) were evaluated with or without Hst1 treatment. […] Additionally, LAMP1 lysosomal marker accumulation in untreated NPC1^−/− cells were normalized with Hst1 treatment.

NPC1 KD cells = assay: LC3 immunolocalization in NPC1 KD cells (autophagy); type: cell-based; settings: 20 μM or 50 μM
From the text: Autophagy. NPC1-deficiency results in increased autophagy as evidenced by elevated microtubule-associated protein 1 light chain 3 (LC3) levels, numerous autophagic vacuoles and enhanced degradation of long-lived proteins (Pacheco, et al. (2007) Human Mol. Genet. 16(12):1495-1503).

[7] = test system: Synthetic TMEM97 (144-176); assay: Surface plasmon resonance, immobilized synthetic TMEM97 (144-176); type: binding; settings: mutations E170A, E171A and E170A/E171A of TMEM97 (144-176)
Protocol: as §1, §2, §4, §3

[8] = target: T5, Synthetic TMEM97 (144-176) (Homo sapiens, UniProt Q5BJF2); assay: as above; type: binding; settings: SPR
T5 construct: made in house; host or cells: chemical solid-phase synthesis (Fmoc, Wang resin)
Protocol: as §1, §2, §4, §3

[9] = addition of either DTG or haloperidol

T5 sequence (Q5BJF2 144-176): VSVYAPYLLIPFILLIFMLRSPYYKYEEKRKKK
T4 sequence (Q5BJF2 144-176 limits assumed): as the sequence (Q5BJF2 144-176) above
T1 sequence (Q5BJF2 whole entry): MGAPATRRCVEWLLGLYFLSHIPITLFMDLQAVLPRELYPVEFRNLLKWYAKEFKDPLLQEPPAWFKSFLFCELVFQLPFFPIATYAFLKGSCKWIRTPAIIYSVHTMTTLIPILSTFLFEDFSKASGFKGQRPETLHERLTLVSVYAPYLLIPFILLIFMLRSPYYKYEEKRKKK
T2 sequence (Q5BJF2 108-176): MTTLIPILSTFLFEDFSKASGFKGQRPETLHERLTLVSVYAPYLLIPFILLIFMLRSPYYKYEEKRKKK
T3 sequence (Q5BJF2 108-143 limits assumed): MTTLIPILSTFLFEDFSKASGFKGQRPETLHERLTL

CC(C)C[C@H](NC(=O)[C@H](Cc1ccc(O)cc1)NC(=O)[C@H](CC(N)=O)NC(=O)[C@H](CO)NC(=O)CNC(=O)[C@H](Cc1ccc(O)cc1)NC(=O)[C@H](CC(=O)O)NC(=O)CNC(=O)[C@H](Cc1ccc(O)cc1)NC(=O)[C@H](Cc1ccccc1)NC(=O)[C@@H]1CCCN1C(=O)[C@H](Cc1ccccc1)NC(=O)[C@H](CCC(=O)O)NC(=O)[C@H](CCCNC(=N)N)NC(=O)[C@H](Cc1c[nH]cn1)NC(=O)[C@H](CO)NC(=O)[C@H](Cc1c[nH]cn1)NC(=O)[C@H](Cc1c[nH]cn1)NC(=O)[C@H](CCCCN)NC(=O)[C@H](CCC(=O)O)NC(=O)[C@H](Cc1c[nH]cn1)NC(=O)[C@H](Cc1ccccc1)NC(=O)[C@H](CCCCN)NC(=O)[C@H](CCCNC(=N)N)NC(=O)[C@H](CCCNC(=N)N)NC(=O)[C@H](Cc1ccc(O)cc1)NC(=O)CNC(=O)[C@H](Cc1c[nH]cn1)NC(=O)[C@H](Cc1c[nH]cn1)NC(=O)[C@H](CCCNC(=N)N)NC(=O)[C@H](CCCCN)NC(=O)[C@H](CCC(=O)O)NC(=O)[C@H](Cc1c[nH]cn1)NC(=O)[C@H](COP(=O)(O)O)NC(=O)[C@@H](N)CC(=O)O)C(=O)N[C@@H](Cc1ccc(O)cc1)C(=O)N[C@@H](CC(=O)O)C(=O)N[C@@H](CC(N)=O)C(=O)O [Hst1] (H-D[pS]HEKRHHGYRRKFHEKHHSHREFPFYGDYGSNYLYDN-OH; N-terminus and C-terminus assumed)
ceramides (Cer NS, HexCer NS, SM) ([1]; 7-week-old NPC mouse model): significantly increasing | gangliosides (GM3, GM2 and GM1) ([1]; 7-week-old NPC mouse model): significantly increasing | phosphatidylinositol 4,5-bisphosphate (PIP2; 20:4/18:0) levels ([1]; NPC1−/− mouse, 9-week-old): significantly decrease | % Rmax ([2]; SPR): 32% | Kd ([2]; SPR, 25° C., 1 to 1 Langmuir kinetic model): 1300 ± 300 nM | effect of added DTG or haloperidol on Hst1 binding [2, 9]: did not affect | % Rmax (GST-TMEM97 (108-176)): 43% | % Rmax (GST-TMEM97 (108-176); listed as Hst1(1-38)): (% Rmax = 23%) | effect of added DTG or haloperidol on Hst1 binding (GST-TMEM97 (108-176); [9]): did not affect | KD / binding [3]: unable to bind | KD / binding ([3]; listed as Hst1(1-38)): No binding | cellular calcium levels [4]: increased cellular calcium levels | Kd (TMEM97 (144-176)): 460 ± 120 nM | ΔH (TMEM97 (144-176)): -790 ± 28 kcal/mol | ΔS (TMEM97 (144-176)): −2.28(±0.37)×10^3 cal/mol K | potentiation of molar activity by cyclization [5]: approximately 1000 fold | HMG-CoA reductase gene expression (NPC1 patient fibroblasts): reducing HMG-CoA reductase gene expression | NPC1 gene expression (NPC1 patient fibroblasts): increasing NPC1 gene expression | LAMP1 lysosomal marker accumulation [6]: normalized | cholesterol accumulation (Filipin stained cells) [6]: reduction in cholesterol accumulation | LC3 levels (NPC1 KD cells): dose-dependent reduction in LC3 levels | effect of TMEM97 mutations on Hst1 binding [7]: did not affect | % Rmax [8]: 21% | Kd [8]: 2400 nM | % Rmax ([8]; listed as Hst1(1-38)): (% Rmax = 22%)
